pIC50: −log10 of the molar value.
Assays:
Eimeria acervulina [1] = test: Anticoccidial activity against Eimeria acervulina in chickens assessed as reduction of oocysts at 12.5 ppm measured after 8 days by ExMAC assay relative to untreated control; type: functional; set-up: scale not given: the % may be the effect or the level left
Eimeria maxima [2] = test: Anticoccidial activity against Eimeria maxima in chickens assessed as reduction of oocysts at 10 ppm measured after 8 days by ExMAC assay relative to untreated control; type: functional; set-up: scale not given: the % may be the effect or the level left
Eimeria acervulina [3] = test: Anticoccidial activity against Eimeria acervulina in chickens assessed as reduction of oocysts at 8 ppm measured after 8 days by ExMAC assay relative to untreated control; type: functional; set-up: scale not given: the % may be the effect or the level left
Eimeria mitis [4] = test: Anticoccidial activity against Eimeria mitis in chickens assessed as reduction of oocysts at 25 ppm measured after 8 days by ExMAC assay relative to untreated control; type: functional; set-up: scale not given: the % may be the effect or the level left
Eimeria tenella [5] = test: Anticoccidial activity against Eimeria tenella in chickens assessed as reduction of oocysts at 6 ppm measured after 8 days by ExMAC assay relative to untreated control; type: functional; set-up: scale not given: the % may be the effect or the level left
Eimeria mitis [6] = test: Anticoccidial activity against Eimeria mitis in chickens assessed as reduction of oocysts at 6 ppm measured after 8 days by ExMAC assay relative to untreated control; type: functional; set-up: scale not given: the % may be the effect or the level left
Eimeria tenella [7] = test: Anticoccidial activity against Eimeria tenella in chickens assessed as reduction of oocysts at 25 ppm measured after 8 days by ExMAC assay relative to untreated control; type: functional; set-up: scale not given: the % may be the effect or the level left
Eimeria mitis [8] = test: Anticoccidial activity against Eimeria mitis in chickens assessed as reduction of oocysts at 12.5 ppm measured after 8 days by ExMAC assay relative to untreated control; type: functional; set-up: scale not given: the % may be the effect or the level left
Eimeria maxima [9] = test: Anticoccidial activity against Eimeria maxima in chickens assessed as reduction of oocysts at 8 ppm measured after 8 days by ExMAC assay relative to untreated control; type: functional; set-up: scale not given: the % may be the effect or the level left
Eimeria acervulina [10] = test: Anticoccidial activity against Eimeria acervulina in chickens assessed as reduction of oocysts at 6 ppm measured after 8 days by ExMAC assay relative to untreated control; type: functional; set-up: scale not given: the % may be the effect or the level left
Eimeria maxima [11] = test: Anticoccidial activity against Eimeria maxima in chickens assessed as reduction of oocysts at 12.5 ppm measured after 8 days by ExMAC assay relative to untreated control; type: functional; set-up: scale not given: the % may be the effect or the level left
[12] = target: cGMP-dependent protein kinase (Eimeria tenella, UniProt Q8MMZ8); test: Inhibition of Eimeria tenella cGMP-dependent protein kinase
Sequence of cGMP-dependent protein kinase (Q8MMZ8 whole entry): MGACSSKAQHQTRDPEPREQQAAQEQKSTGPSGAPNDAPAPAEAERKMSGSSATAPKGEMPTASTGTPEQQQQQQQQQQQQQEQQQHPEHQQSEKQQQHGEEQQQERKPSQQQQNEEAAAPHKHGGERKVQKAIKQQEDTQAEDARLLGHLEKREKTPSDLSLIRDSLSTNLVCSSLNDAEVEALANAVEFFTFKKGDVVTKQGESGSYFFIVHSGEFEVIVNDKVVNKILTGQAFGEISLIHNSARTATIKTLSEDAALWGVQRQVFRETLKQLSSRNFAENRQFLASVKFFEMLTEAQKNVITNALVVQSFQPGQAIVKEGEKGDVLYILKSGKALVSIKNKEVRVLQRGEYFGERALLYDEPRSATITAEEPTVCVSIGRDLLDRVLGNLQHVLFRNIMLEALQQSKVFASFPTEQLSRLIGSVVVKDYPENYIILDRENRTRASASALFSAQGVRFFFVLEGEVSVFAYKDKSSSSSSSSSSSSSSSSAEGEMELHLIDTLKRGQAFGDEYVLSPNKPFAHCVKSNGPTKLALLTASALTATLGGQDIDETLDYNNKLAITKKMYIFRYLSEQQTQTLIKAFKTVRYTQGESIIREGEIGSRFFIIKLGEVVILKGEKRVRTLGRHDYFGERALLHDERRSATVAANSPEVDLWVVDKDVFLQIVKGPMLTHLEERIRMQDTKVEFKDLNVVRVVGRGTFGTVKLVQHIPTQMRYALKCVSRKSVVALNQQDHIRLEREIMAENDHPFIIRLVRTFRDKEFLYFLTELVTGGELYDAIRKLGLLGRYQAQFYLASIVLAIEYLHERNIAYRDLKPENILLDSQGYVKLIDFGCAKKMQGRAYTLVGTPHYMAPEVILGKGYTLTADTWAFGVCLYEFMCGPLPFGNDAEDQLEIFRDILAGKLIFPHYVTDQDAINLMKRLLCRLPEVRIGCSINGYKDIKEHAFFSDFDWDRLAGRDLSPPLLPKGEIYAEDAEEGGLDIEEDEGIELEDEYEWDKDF

Eimeria mitis [13] = test: Anticoccidial activity against Eimeria mitis in chickens assessed as reduction of oocysts at 8 ppm measured after 8 days by ExMAC assay relative to untreated control; type: functional; set-up: scale not given: the % may be the effect or the level left
Eimeria tenella [14] = test: Anticoccidial activity against Eimeria tenella in chickens assessed as reduction of oocysts at 12.5 ppm measured after 8 days by ExMAC assay relative to untreated control; type: functional; set-up: scale not given: the % may be the effect or the level left
Eimeria acervulina [15] = test: Anticoccidial activity against Eimeria acervulina in chickens assessed as reduction of oocysts at 25 ppm measured after 8 days by ExMAC assay relative to untreated control; type: functional; set-up: scale not given: the % may be the effect or the level left
Eimeria tenella [16] = test: Anticoccidial activity against Eimeria tenella in chickens assessed as reduction of oocysts at 8 ppm measured after 8 days by ExMAC assay relative to untreated control; type: functional; set-up: scale not given: the % may be the effect or the level left
Eimeria mitis [17] = test: Anticoccidial activity against Eimeria mitis in chickens assessed as reduction of oocysts at 10 ppm measured after 8 days by ExMAC assay relative to untreated control; type: functional; set-up: scale not given: the % may be the effect or the level left
Eimeria maxima [18] = test: Anticoccidial activity against Eimeria maxima in chickens assessed as reduction of oocysts at 6 ppm measured after 8 days by ExMAC assay relative to untreated control; type: functional; set-up: scale not given: the % may be the effect or the level left
Eimeria tenella [19] = test: Anticoccidial activity against Eimeria tenella in chickens assessed as reduction of oocysts at 10 ppm measured after 8 days by ExMAC assay relative to untreated control; type: functional; set-up: scale not given: the % may be the effect or the level left
Eimeria maxima [20] = test: Anticoccidial activity against Eimeria maxima in chickens assessed as reduction of oocysts at 25 ppm measured after 8 days by ExMAC assay relative to untreated control; type: functional; set-up: scale not given: the % may be the effect or the level left
Eimeria acervulina [21] = test: Anticoccidial activity against Eimeria acervulina in chickens assessed as reduction of oocysts at 10 ppm measured after 8 days by ExMAC assay relative to untreated control; type: functional; set-up: scale not given: the % may be the effect or the level left
Eimeria tenella [22] = test: Anticoccidial activity against Eimeria tenella in chickens assessed as reduction of oocysts at 6.25 ppm measured after 8 days by ExMAC assay relative to untreated control; type: functional; set-up: scale not given: the % may be the effect or the level left
Eimeria mitis [23] = test: Anticoccidial activity against Eimeria mitis in chickens assessed as reduction of oocysts at 6.25 ppm measured after 8 days by ExMAC assay relative to untreated control; type: functional; set-up: scale not given: the % may be the effect or the level left
Eimeria maxima [24] = test: Anticoccidial activity against Eimeria maxima in chickens assessed as reduction of oocysts at 6.25 ppm measured after 8 days by ExMAC assay relative to untreated control; type: functional; set-up: scale not given: the % may be the effect or the level left
Eimeria acervulina [25] = test: Anticoccidial activity against Eimeria acervulina in chickens assessed as reduction of oocysts at 6.25 ppm measured after 8 days by ExMAC assay relative to untreated control; type: functional; set-up: scale not given: the % may be the effect or the level left
Eimeria mitis [26] = test: Anticoccidial activity against Eimeria mitis in chickens assessed as reduction of oocysts at 2 ppm measured after 8 days by ExMAC assay relative to untreated control; type: functional; set-up: scale not given: the % may be the effect or the level left
Eimeria acervulina [27] = test: Anticoccidial activity against Eimeria acervulina in chickens assessed as reduction of oocysts at 1 ppm measured after 8 days by ExMAC assay relative to untreated control; type: functional; set-up: scale not given: the % may be the effect or the level left
Eimeria acervulina [28] = test: Anticoccidial activity against Eimeria acervulina in chickens assessed as reduction of oocysts at 2 ppm measured after 8 days by ExMAC assay relative to untreated control; type: functional; set-up: scale not given: the % may be the effect or the level left
Eimeria maxima [29] = test: Anticoccidial activity against Eimeria maxima in chickens assessed as reduction of oocysts at 2 ppm measured after 8 days by ExMAC assay relative to untreated control; type: functional; set-up: scale not given: the % may be the effect or the level left
Eimeria mitis [30] = test: Anticoccidial activity against Eimeria mitis in chickens assessed as reduction of oocysts at 4 ppm measured after 8 days by ExMAC assay relative to untreated control; type: functional; set-up: scale not given: the % may be the effect or the level left
Eimeria tenella [31] = test: Anticoccidial activity against Eimeria tenella in chickens assessed as reduction of oocysts at 2 ppm measured after 8 days by ExMAC assay relative to untreated control; type: functional; set-up: scale not given: the % may be the effect or the level left
Eimeria maxima [32] = test: Anticoccidial activity against Eimeria maxima in chickens assessed as reduction of oocysts at 1 ppm measured after 8 days by ExMAC assay relative to untreated control; type: functional; set-up: scale not given: the % may be the effect or the level left
Eimeria mitis [33] = test: Anticoccidial activity against Eimeria mitis in chickens assessed as reduction of oocysts at 1 ppm measured after 8 days by ExMAC assay relative to untreated control; type: functional; set-up: scale not given: the % may be the effect or the level left
Eimeria maxima [34] = test: Anticoccidial activity against Eimeria maxima in chickens assessed as reduction of oocysts at 4 ppm measured after 8 days by ExMAC assay relative to untreated control; type: functional; set-up: scale not given: the % may be the effect or the level left

Row | Structure (SMILES) | Activity (Eimeria acervulina [1]) [%] | Activity (Eimeria mitis [4]) [%] | Activity (Eimeria tenella [7]) [%] | Activity (Eimeria mitis [8]) [%] | Activity (Eimeria maxima [11]) [%] | pIC50 [12] | Activity (Eimeria tenella [14]) [%] | Activity (Eimeria acervulina [15]) [%] | Activity (Eimeria maxima [20]) [%] | Activity (Eimeria tenella [22]) [%] | Activity (Eimeria mitis [23]) [%] | Activity (Eimeria maxima [24]) [%] | Activity (Eimeria acervulina [25]) [%] | other results
1 | CN1CCC(c2ccn3c(-c4ccnc(N)n4)c(-c4ccc(F)cc4)nc3c2)CC1 | 100 | 100 | 100 | 100 | 100 | 10.36 | 100 | 100 | 100 |  |  |  |  | Activity (Eimeria maxima [2]): 100%; Activity (Eimeria acervulina [3]): 80%; Activity (Eimeria tenella [5]): 100%; Activity (Eimeria mitis [6]): 80%; Activity (Eimeria maxima [9]): 100%; Activity (Eimeria acervulina [10]): 80%; Activity (Eimeria mitis [13]): 80%; Activity (Eimeria tenella [16]): 100%; Activity (Eimeria mitis [17]): 100%; Activity (Eimeria maxima [18]): 100%; Activity (Eimeria tenella [19]): 100%; Activity (Eimeria acervulina [21]): 100%
2 | CCC(c1ccn2c(-c3ccnc(N)n3)c(-c3ccc(F)cc3)nc2c1)N(C)C (stereo not given) | 100 |  |  | 100 | 100 | 9.89 | 100 |  |  |  |  |  |  | Activity (Eimeria acervulina [3]): 80%; Activity (Eimeria maxima [9]): 50%; Activity (Eimeria mitis [13]): <50%; Activity (Eimeria tenella [16]): 50%
3 | CCCC(c1ccn2c(-c3ccnc(N)n3)c(-c3ccc(F)cc3)nc2c1)N(C)C (stereo not given) | 80 | 100 | 100 | <50 | <50 | 10.19 | <50 | 100 | 100 | <50 | <50 | 100 | 80 | 
4 | Nc1nccc(-c2c(-c3ccc(F)cc3)nc3cc(C4CCN(CCO)CC4)ccn23)n1 | 50 | <50 | 99 | 80 | 80 | 10.36 | 99 | 99 | 50 | 99 | <50 | <50 | <50 | 
5 | CN(C)CC(C)(C)c1ccn2c(-c3ccnc(N)n3)c(-c3ccc(F)cc3)nc2c1 | 80 | 80 | 100 | <50 | <50 | 9.70 | 80 | 80 | <50 | <50 | <50 | <50 | <50 | 
6 | CN(C)C(C)(C)c1ccn2c(-c3ccnc(N)n3)c(-c3ccc(F)cc3)nc2c1 |  |  |  |  |  | 9.96 |  |  |  | 100 | 80 | 80 | 100 | Activity (Eimeria acervulina [3]): 100%; Activity (Eimeria maxima [9]): 100%; Activity (Eimeria mitis [13]): <50%; Activity (Eimeria tenella [16]): 100%
7 | CN(C)CCc1ccn2c(-c3ccnc(N)n3)c(-c3ccc(F)cc3)nc2c1 | 100 | 100 | 100 | 80 | 100 | 9.34 | 100 | 100 | 100 | 100 | <50 | 50 | 80 | 
8 | Nc1nccc(-c2c(-c3ccc(F)cc3)nc3cc(C4CCN(CCCO)CC4)ccn23)n1 | 50 | <50 | 100 | <50 | <50 | 10.19 | 100 | 80 | <50 | <50 | <50 | <50 | 50 | 
9 | CCN(CC)Cc1ccn2c(-c3ccnc(N)n3)c(-c3ccc(F)cc3)nc2c1 | 50 | 80 | 80 | <50 | 80 | 9.77 | 80 | 50 | 80 | <50 | 50 | <50 | <50 | 
10 | CN(C)CC(F)c1ccn2c(-c3ccnc(N)n3)c(-c3ccc(F)cc3)nc2c1 (stereo not given) | 80 | 100 | 100 | 50 | 100 | 9.23 | 80 | 100 | 100 | 80 | <50 | 100 | <50 | 
11 | CC(c1ccn2c(-c3ccnc(N)n3)c(-c3ccc(F)cc3)nc2c1)N(C)C (single isomer, unassigned; enantiomer A) |  |  |  |  |  | 9.55 |  |  |  |  |  |  |  | Activity (Eimeria mitis [26]): <50%; Activity (Eimeria acervulina [27]): <50%; Activity (Eimeria acervulina [28]): <50%; Activity (Eimeria maxima [29]): 50%; Activity (Eimeria mitis [30]): <50%; Activity (Eimeria tenella [31]): <50%; Activity (Eimeria maxima [32]): 50%; Activity (Eimeria mitis [33]): 50%; Activity (Eimeria maxima [34]): <50%

Reference: ChEMBL document CHEMBL1141668, “Synthesis and biological activity of imidazopyridine anticoccidial agents: Part II” (Eur J Med Chem, 2008)
